Source: US4877779A, “2-aminomethylalkynylalkyl-1,3-dithiane derivatives” (priority 1988, dated 1989)
Structures can show the parent of a compound that is named as a salt.

These compounds were tested on Serotonin-Induced Diarrhea in Mice (assay: Inhibition of Serotonin-Induced Diarrhea in Mice). Details: Mus musculus, ip, 0.5 h, read-out: ED50 (95% confidence limits).
Assay type: in vivo, Male CF1 mice
Description: Inhibition of Serotonin-Induced Diarrhea in Mice.
. The mice were weighed and an average weight was used to calculate the amount of drug to be administered. Drugs were prepared in isotonic saline or an appropriate vehicle at varying concentrations and were administered intraperitoneally. Control animals were given vehicles without any test drug. Serotonin was given intraperitoneally (i.p.) in all cases 30 minutes after i.p. administration of test drug. Mice were placed in individual cages containing racks and paper liners with free access to water. Mice were observed after 30 minutes, 60 minutes and 180 minutes and graded for presence or absence of diarrhea. The grading system consisted of positive (+), negative (-) and (±) based on consistency and liquid staining. The ED50 (effective dose in 50% of population) was calculated for each test drug using the method of Litchfield-Wilcoxin. […]

Structure (SMILES)	ED50 [mg/kg]
CCN(CC)CC#CCCC1(C2(O)c3ccccc3Oc3ccccc32)SCCCS1 [2-(5-Diethylaminopent-3-ynyl)-2-(9-hydroxy-9H-xanthen-9-yl)-1,3-dithiane]	20.7

Same assay, conditions: Mus musculus, ip, 0.5 h; i.p., serotonin i.p. 30 minutes after test drug; mice; Litchfield-Wilcoxin; read-out: ED50 (95% confidence limits)

Structure (SMILES)	ED50 [mg/kg]
CN(C)C(=O)C(CCN1CCC(O)(c2ccc(Cl)cc2)CC1)(c1ccccc1)c1ccccc1 [loperamide, reference compound]	0.16
COc1ccc(CCN(C)CCCC(C#N)(c2ccc(OC)c(OC)c2)C(C)C)cc1OC (centres unmarked) [verapamil]	13.3

What follows are compounds tested on substance P-induced Cl- ion secretion by guinea-pig isolated ileal mucosa (assay: not given). Details: antagonist 5 μM serosal and mucosal, 5 minutes prior to substance P (1 μM).
Assay type: cell-based

Structure (SMILES)	percent inhibition of substance P-induced increase in Isc [%]
CN(C)C(=O)C(CCN1CCC(O)(c2ccc(Cl)cc2)CC1)(c1ccccc1)c1ccccc1 [loperamide, reference compound]	36.1
CCN(CC)CC#CCCC1(C2(O)c3ccccc3Oc3ccccc32)SCCCS1 [2-(5-Diethylaminopent-3-ynyl)-2-(9-hydroxy-9H-xanthen-9-yl)-1,3-dithiane]	55.2

These compounds were tested against T1, calcium channel (guinea-pig isolated ileal longitudinal smooth muscle) (Cavia porcellus, UniProt O35505) (assay: Calcium Channel Antagonist Activity in Guinea-Pig Isolated Ileal Smooth Muscle). Details: not given.
T1 construct: The longitudinal smooth muscle is carefully separated from the underlying circular muscle layer; from tissue; host or cells: guinea-pig ileal longitudinal smooth muscle
T1 sequence (O35505 whole entry): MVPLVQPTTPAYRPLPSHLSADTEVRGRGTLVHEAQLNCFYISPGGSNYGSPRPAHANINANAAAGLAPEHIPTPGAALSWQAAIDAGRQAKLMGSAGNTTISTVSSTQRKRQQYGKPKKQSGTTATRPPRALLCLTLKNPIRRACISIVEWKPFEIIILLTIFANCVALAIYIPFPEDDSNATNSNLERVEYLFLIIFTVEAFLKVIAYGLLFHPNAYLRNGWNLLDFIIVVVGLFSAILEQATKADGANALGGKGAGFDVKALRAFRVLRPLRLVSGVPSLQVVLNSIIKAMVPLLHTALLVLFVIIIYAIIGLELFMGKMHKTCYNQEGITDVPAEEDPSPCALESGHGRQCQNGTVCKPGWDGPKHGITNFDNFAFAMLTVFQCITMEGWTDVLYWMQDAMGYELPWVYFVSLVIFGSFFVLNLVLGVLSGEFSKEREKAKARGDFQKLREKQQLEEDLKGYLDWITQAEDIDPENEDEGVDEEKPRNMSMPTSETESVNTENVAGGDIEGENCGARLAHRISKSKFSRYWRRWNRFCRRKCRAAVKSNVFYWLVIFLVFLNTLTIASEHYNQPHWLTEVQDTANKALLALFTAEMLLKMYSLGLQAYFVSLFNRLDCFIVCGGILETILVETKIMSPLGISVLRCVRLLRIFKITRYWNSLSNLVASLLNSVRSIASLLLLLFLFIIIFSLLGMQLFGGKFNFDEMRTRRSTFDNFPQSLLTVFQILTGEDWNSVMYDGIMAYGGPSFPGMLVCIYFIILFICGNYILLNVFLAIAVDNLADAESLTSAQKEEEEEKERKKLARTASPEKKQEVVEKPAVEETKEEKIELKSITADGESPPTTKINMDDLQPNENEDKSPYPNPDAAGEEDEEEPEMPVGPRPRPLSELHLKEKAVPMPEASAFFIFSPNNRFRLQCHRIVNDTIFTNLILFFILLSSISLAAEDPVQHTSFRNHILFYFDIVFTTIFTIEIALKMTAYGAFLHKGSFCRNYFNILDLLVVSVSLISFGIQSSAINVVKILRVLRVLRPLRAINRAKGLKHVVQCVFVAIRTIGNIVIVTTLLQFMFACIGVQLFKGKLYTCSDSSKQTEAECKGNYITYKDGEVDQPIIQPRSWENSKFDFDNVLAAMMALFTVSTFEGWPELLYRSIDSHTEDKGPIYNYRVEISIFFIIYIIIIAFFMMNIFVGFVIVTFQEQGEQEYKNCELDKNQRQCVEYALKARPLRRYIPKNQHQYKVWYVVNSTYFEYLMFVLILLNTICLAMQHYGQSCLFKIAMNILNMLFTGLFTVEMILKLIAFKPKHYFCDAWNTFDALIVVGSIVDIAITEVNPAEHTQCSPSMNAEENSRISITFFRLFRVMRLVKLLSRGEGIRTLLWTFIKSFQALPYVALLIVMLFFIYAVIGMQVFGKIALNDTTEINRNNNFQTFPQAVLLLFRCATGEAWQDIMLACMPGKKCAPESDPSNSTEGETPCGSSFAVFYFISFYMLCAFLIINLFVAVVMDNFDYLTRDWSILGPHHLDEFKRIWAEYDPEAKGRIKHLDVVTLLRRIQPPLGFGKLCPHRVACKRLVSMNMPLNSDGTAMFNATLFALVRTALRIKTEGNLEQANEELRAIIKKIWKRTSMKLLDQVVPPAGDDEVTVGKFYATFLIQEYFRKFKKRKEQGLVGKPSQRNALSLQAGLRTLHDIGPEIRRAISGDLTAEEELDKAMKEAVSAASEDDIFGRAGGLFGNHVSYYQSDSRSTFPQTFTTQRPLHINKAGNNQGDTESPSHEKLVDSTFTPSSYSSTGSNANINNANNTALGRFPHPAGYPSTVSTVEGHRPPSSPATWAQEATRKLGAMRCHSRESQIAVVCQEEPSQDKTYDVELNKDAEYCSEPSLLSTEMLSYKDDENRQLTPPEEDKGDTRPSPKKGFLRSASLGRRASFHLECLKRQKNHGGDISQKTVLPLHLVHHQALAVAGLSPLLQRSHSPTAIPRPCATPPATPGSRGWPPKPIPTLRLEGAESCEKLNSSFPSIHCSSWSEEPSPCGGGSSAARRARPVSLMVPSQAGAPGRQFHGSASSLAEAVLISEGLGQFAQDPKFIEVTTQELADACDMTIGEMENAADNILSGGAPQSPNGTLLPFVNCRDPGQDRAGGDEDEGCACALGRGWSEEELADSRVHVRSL
Assay type: cell-based
Source text: Calcium Channel Antagonist Activity in Guinea-Pig Isolated Ileal Smooth Muscle.
Male albino guinea-pigs are sacrificed by stunning and exsanguination. The abdominal cavity is opened and the small intestine is removed, with about 10 cm of the terminal ileum being discarded. The tissue is placed in a dish containing Tyrode's solution (composition, mM: […]; KCl 2.68; NaHCO3 11.90; NaH2 PO4 0.36; MgCl2 0.98; CaCl2 1.77; dextrose 5.55), and cut into three to four segments. A glass rod (6 mm diameter) is carefully inserted into the lumen of each segment, and excess connective tissue or fat is removed. The longitudinal smooth muscle is carefully separated from the underlying circular muscle layer by gently stroking a moist cotton swab on a tangent to shallow, longitudinal incisions made parallel to the mesenteric attachment. Using gentle traction, and taking care to keep the segment moist at all times, the preparation is stripped from the remaining length of the ileal segment (Paton & Zar, J. Physiol. 194, 13; 1968).
Each preparation is suspended in a 10 mL jacketed glass tissue bath containing Tyrode's solution maintained at 37° C. and gassed with 5% CO2 in O2. The preparation is attached by silk thread to a force-displacement transducer. […] The initial resting tension is adjusted to 0.5 g and the preparation equilibrated for 55 minutes prior to experimentation. At the end of this period, the bathing solution is replaced with Ca^2+ -free Tyrode's solution. This solution is prepared by omitting CaCl2. The preparation is washed four times in Ca^2+ -free Tyrode 's to remove any Ca^2+ remaining in the bath, and allowed to equilibrate for a further 20 minutes.
Concentration-response curves to CaCl2 are obtained using the following procedure. Preparations are exposed to a depolarizing concentration of KCl (80 mM) for 6 minutes. At the end of this period CaCl2 is added to the bath cumulatively in the concentration range 0.2-8.0 mM. Successive additions of each Ca^2+ concentration are carried out only when the previous response has reached a plateau. When the maximum response has been attained the bath is again washed (five times) with Ca^2+ -free buffer, and the preparation re-equilibrated for approximately 15 minutes. A second Ca^2+ concentration-response curve is then obtained in the same manner. This second curve serves as control for that tissue.
Further curves are obtained in the presence of increasing concentrations of the test drugs. Where appropriate, the test drug is added to the bath immediately following addition of KCl, and 6 minutes later the concentration-response curve to Ca^2+ is obtained. Each test preparation is exposed to three different concentrations of a test drug.
For each ileal preparation, the control EC50 for Ca^2+ (the concentration producing 50% of the maximum response) is determined from the control concentration-response curve. Calcium blocking activity is defined as a Kb value (the concentration producing a two-fold dextral shift in the control curve), calculated from EC50 ratios in the absence and presence of test drugs.

Structure (SMILES)	Kb [nM]
CCN(C)CC#CCCC1(C2(O)c3ccccc3-c3ccccc32)SCCCS1 [2-(5-Ethylmethylaminopent-3-ynyl)-2-(9-hydroxy-9H-fluoren-9-yl)-1,3-dithiane]	1230 ± 470
CCN(CC)CC#CCCC1(C2(O)c3ccccc3Oc3ccccc32)SCCCS1 [2-(5-Diethylaminopent-3-ynyl)-2-(9-hydroxy-9H-xanthen-9-yl)-1,3-dithiane]	156 ± 30

Same assay, conditions: Kb = concentration producing a two-fold dextral shift in the control CaCl2 concentration-response curve; KCl (80 mM) depolarized ileal smooth muscle; read-out: Calcium antagonist Kb

Structure (SMILES)	Kb [nM]
COc1ccc(CCN(C)CC#CCC2(c3ccccc3)SCCCS2)cc1OC [2-[4-[2-(3,4-dimethoxyphenyl)ethyl]methylaminobut-2-ynyl]-2-phenyl-1,3-dithiane oxalate]	1170 ± 350
COc1ccc(CCN(C)CC#CCCC2SCCCS2)cc1OC [2-[5-[2-(3,4-Dimethoxyphenyl)ethyl]methylaminopent-3-ynyl]-1,3-dithiane Oxalate]	2220 ± 70
CN(CC#CCCC1(C2(O)c3ccccc3Sc3ccccc32)SCCCS1)CCCc1ccccc1 [2-[5-(3-Phenylpropyl)methylaminopent-3-ynyl]-2-(9-hydroxy-9H-thioxanthen-9-yl)-1,3-dithiane]	4160 ± 860
CN1CCN(CC#CCCC2SCCCS2)CC1 [2-[5-(4-Methylpiperazinyl)pent-3-ynyl]-1,3-dithiane Dioxalate]	> 10000
COc1ccc(CCN(C)CC#CCCC(O[Si](C)(C)C)(c2ccccc2)C2SCCCS2)cc1OC (centres unmarked) [2-[6-[2-(3,4-Dimethoxyphenyl)ethyl]methylamino-1-phenyl-1-trimethylsilyloxyhex-4-ynyl]-1,3-dithiane]	570 ± 30
CCCN(CC#CCCCC1(C2(O)c3ccccc3Sc3ccccc32)SCCCS1)CCC [2-(6-Dipropylaminohex-4-ynyl)-2-(9-hydroxy-9H-thioxanthen-9-yl)-1,3-dithiane]	770
CCN(CC)CC#CCCC1(C2(O)c3ccccc3Sc3ccc(Cl)cc32)SCCCS1 (centres unmarked) [2-(5-Diethylaminopent-3-ynyl)-2-(2-chloro-9-hydroxy-9H-thioxanthen-9-yl)-1,3-dithiane Oxalate]	330 ± 50
CCN(CC)CC#CCCCC1SCCCS1 [2-(6-Diethylaminohex-4-ynyl)-1,3-dithiane Oxalate]	> 10000
COc1ccc(CCN(C)CC#CCCC(O)(c2ccccc2)C2SCCCS2)cc1OC (centres unmarked) [2[6-[2-(3,4-dimethoxyphenyl)ethyl]methylamino-1-hydroxy-1-phenylhex-4-ynyl]-1,3-dithiane]	1230 ± 530
CCN(CC)CC#CCCC1(C(O)(c2ccccc2)C2CCCCC2)SCCCS1 (stereo not drawn) [2-(5-Diethylaminopent-3-ynyl)-2-(α-cyclohexyl-α-hydroxybenzyl)-1,3-dithiane Hemioxalate]	1140 ± 21
CN(CC#CCCC1SCCCS1)CCc1ccccc1 [2-[5-(2-Phenylethyl)methylaminopent-3-ynyl]-1,3-dithiane Oxalate]	2270 ± 730
CCCN(CC#CCC1(c2ccccc2)SCCCS1)CCC [2-(4-Dipropylaminobut-2-ynyl)-2-phenyl-1,3-dithiane, Oxalate]	1010 ± 150
CN(C)CC#CCCC1SCCCS1 [2-(5-Dimethylaminopent-3-ynyl)-1,3-dithiane Oxalate]	> 10000
CCN(CC)CC#CCCC(O)(c1ccccc1)C1SCCCS1 (centres unmarked) [2-(6-diethylamino-1-hydroxy-1-phenylhex-4-ynyl)-1,3-dithiane oxalate]	6710 ± 1450
CCN(CC)CC#CCCC1(C2(O)c3ccccc3Sc3ccccc32)SCCCS1 [2-(5-Diethylaminopent-3-ynyl)-2-(9-hydroxy-9H-thioxanthen-9-yl)-1,3-dithiane Oxalate]	125 ± 18
CCCN(CC#CCCCC1(C2(O)c3ccccc3Oc3ccccc32)SCCCS1)CCC [2-(6-Dipropylaminohex-4-ynyl)-2-(9-hydroxy-9H-xanthen-9-yl)-1,3-dithiane]	470 ± 150
CN(C)CC#CCCC1(C2(O)c3ccccc3-c3ccccc32)SCCCS1 [2-(5-Dimethylaminopent-3-ynyl)-2-(9-hydroxy-9H-fluoren-9-yl)-1,3-dithiane]	1810 ± 390
CN(CC#CCCCC1SCCCS1)CCc1ccccc1 [2-[6-(2-Phenylethyl)methylaminohex-4-ynyl]-1,3-dithiane Oxalate]	4180 ± 1540
OC1(C2(CCC#CCN3CCCCC3)SCCCS2)c2ccccc2Oc2ccccc21 [2-(5-Piperidinylpent-3-ynyl)-2-(9-hydroxy-9H-xanthen-9-yl)-1,3-dithiane]	399 ± 40
CCN(CC)CC#CCCC1(C2(O)c3ccccc3-c3ccccc32)SCCCS1 [2(5-Diethylaminopent-3-ynyl)-2-(9-hydroxy-9H-fluoren-9-yl)-1,3-dithiane]	500 ± 100
CN(CC#CCCC1(C(O)(c2ccccc2)c2ccccc2)SCCCS1)CCCc1ccccc1 [2-[5-(3-Phenylpropyl)methylaminopent-3-ynyl]-2-(9-hydroxy-9-phenylbenzyl)-1,3-dithiane Oxalate]	1630 ± 880
CN(CC#CCCC1SCCCS1)Cc1ccc2ccccc2c1 [2-[5-(2-Naphthylmethyl)methylaminopent-3-ynyl]-1,3-dithiane Oxalate]	8330 ± 2040
